Experimental data from PubChem BioAssay (NCI).
Values joined by “and” are separate entries in the source; they are usually repeats but may differ in a detail not shown here. Equal entries are not always repeated.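 Five compound concentrations were applied to cells in 96-well plates for 48 hours; endpoints were derived by simple linear interpolation of the resulting dose-response curve. The concentration for 50% growth inhibition is given as GI50. TGI: concentration producing complete growth inhibition.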

How the values were obtained:
Experiment in all cases: DTP human tumour cell line panel, 48 h
HCC-2998 colon = test system: HCC-2998 colon
786-0 renal = test system: 786-0 renal
SNB-19 CNS = test system: SNB-19 CNS
EKVX NSCLC = test system: EKVX NSCLC
RXF 393 renal = test system: RXF 393 renal
A549 NSCLC = test system: A549 NSCLC
UACC-62 melanoma = test system: UACC-62 melanoma
LOX IMVI melanoma = test system: LOX IMVI melanoma
MCF7 breast = test system: MCF7 breast
OVCAR-5 ovarian = test system: OVCAR-5 ovarian
SK-MEL-28 melanoma = test system: SK-MEL-28 melanoma
DU-145 prostate = test system: DU-145 prostate
IGROV1 ovarian = test system: IGROV1 ovarian
CCRF-CEM leukemia = test system: CCRF-CEM leukemia
MALME-3M melanoma = test system: MALME-3M melanoma
SF-539 CNS = test system: SF-539 CNS
M14 melanoma = test system: M14 melanoma
K-562 leukemia = test system: K-562 leukemia
CAKI-1 renal = test system: CAKI-1 renal
COLO 205 colon = test system: COLO 205 colon
NCI/ADR-RES ovarian = test system: NCI/ADR-RES ovarian
SK-OV-3 ovarian = test system: SK-OV-3 ovarian
MOLT-4 leukemia = test system: MOLT-4 leukemia
SF-295 CNS = test system: SF-295 CNS
SR leukemia = test system: SR leukemia
BT-549 breast = test system: BT-549 breast
UO-31 renal = test system: UO-31 renal
PC-3 prostate = test system: PC-3 prostate
SK-MEL-2 melanoma = test system: SK-MEL-2 melanoma
MDA-MB-435 = test system: MDA-MB-435
ACHN renal = test system: ACHN renal
NCI-H460 lung = test system: NCI-H460 lung
SF-268 CNS = test system: SF-268 CNS
HS 578T breast = test system: HS 578T breast
SK-MEL-5 melanoma = test system: SK-MEL-5 melanoma
T-47D breast = test system: T-47D breast
MDA-MB-231 breast = test system: MDA-MB-231 breast
HL-60(TB) leukemia = test system: HL-60(TB) leukemia
A498 renal = test system: A498 renal
HCT-116 colon = test system: HCT-116 colon
UACC-257 melanoma = test system: UACC-257 melanoma
U251 CNS = test system: U251 CNS
RPMI-8226 leukemia = test system: RPMI-8226 leukemia
HOP-62 NSCLC = test system: HOP-62 NSCLC
OVCAR-8 ovarian = test system: OVCAR-8 ovarian
SN12C renal = test system: SN12C renal
TK-10 renal = test system: TK-10 renal
OVCAR-3 ovarian = test system: OVCAR-3 ovarian
HOP-92 NSCLC = test system: HOP-92 NSCLC
HT29 colon = test system: HT29 colon
NCI-H23 lung = test system: NCI-H23 lung
NCI-H226 lung = test system: NCI-H226 lung
SNB-75 CNS = test system: SNB-75 CNS
HCT-15 colon = test system: HCT-15 colon
NCI-H522 lung = test system: NCI-H522 lung
OVCAR-4 ovarian = test system: OVCAR-4 ovarian
SW-620 colon = test system: SW-620 colon
MDA-N = test system: MDA-N
KM12 colon = test system: KM12 colon

Q: With `CSc1ccc2c(cc1=O)[C@@H](NC(=O)c1ccc(N)cc1)CCc1cc(O)c(O)c(O)c1-2` as the compound, how does the TGI (HCC-2998 colon) read?
A: 32.9 µM and 37.3 µM

Q: What about the TGI (786-0 renal) of the same compound?
A: 27.6 µM and 41.1 µM

Q: And the TGI (SNB-19 CNS)?
A: 61 µM and > 100 µM

Q: And the TGI (EKVX NSCLC)?
A: > 100 µM

Q: What about the TGI (RXF 393 renal) of the same compound?
A: > 100 µM

Q: What about the TGI (A549 NSCLC) of the same compound?
A: 49.7 µM and 64.9 µM

Q: And the GI50 (UACC-62 melanoma)?
A: 21.5 µM and 7.58 µM

Q: And the TGI (UACC-62 melanoma)?
A: > 100 µM

Q: And the GI50 (LOX IMVI melanoma)?
A: 12 µM and 4.07 µM

Q: What about the TGI (LOX IMVI melanoma) of the same compound?
A: > 75 µM and 22.9 µM

Q: And the GI50 (MCF7 breast)?
A: 9.14 µM and 3.83 µM

Q: What about the TGI (MCF7 breast) of the same compound?
A: 21.7 µM and > 100 µM

Q: And the TGI (OVCAR-5 ovarian)?
A: 66.3 µM and > 100 µM

Q: What about the TGI (SK-MEL-28 melanoma) of the same compound?
A: > 100 µM

Q: And the TGI (DU-145 prostate)?
A: > 100 µM

Q: What about the TGI (IGROV1 ovarian) of the same compound?
A: > 100 µM

Q: What about the TGI (CCRF-CEM leukemia) of the same compound?
A: > 100 µM

Q: And the TGI (MALME-3M melanoma)?
A: > 100 µM

Q: What about the TGI (SF-539 CNS) of the same compound?
A: 27.6 µM

Q: What about the GI50 (M14 melanoma) of the same compound?
A: 13.5 µM and 5.66 µM

Q: What about the TGI (M14 melanoma) of the same compound?
A: 27.9 µM and 36.5 µM

Q: What about the TGI (K-562 leukemia) of the same compound?
A: > 100 µM

Q: And the GI50 (CAKI-1 renal)?
A: > 75 µM and 25.8 µM

Q: What about the TGI (CAKI-1 renal) of the same compound?
A: > 75 µM and 53.2 µM

Q: And the GI50 (COLO 205 colon)?
A: 31.7 µM and 4.04 µM

Q: And the TGI (COLO 205 colon)?
A: > 100 µM

Q: What about the TGI (NCI/ADR-RES ovarian) of the same compound?
A: 57.3 µM and 61.6 µM

Q: What about the TGI (SK-OV-3 ovarian) of the same compound?
A: > 100 µM

Q: What about the TGI (MOLT-4 leukemia) of the same compound?
A: > 100 µM

Q: And the TGI (SF-295 CNS)?
A: 39.2 µM and 46.1 µM

Q: What about the TGI (SR leukemia) of the same compound?
A: > 100 µM

Q: And the TGI (BT-549 breast)?
A: 38.2 µM and 52.3 µM

Q: And the TGI (UO-31 renal)?
A: 33.8 µM and > 100 µM

Q: What about the TGI (PC-3 prostate) of the same compound?
A: > 100 µM

Q: What about the GI50 (SK-MEL-2 melanoma) of the same compound?
A: 30.9 µM and 11.4 µM

Q: And the TGI (SK-MEL-2 melanoma)?
A: > 100 µM

Q: What about the TGI (MDA-MB-435) of the same compound?
A: 51 µM and > 100 µM

Q: What about the TGI (ACHN renal) of the same compound?
A: 37.4 µM and 43.8 µM

Q: And the TGI (NCI-H460 lung)?
A: 29.6 µM and 49.7 µM

Q: And the TGI (SF-268 CNS)?
A: 47.8 µM and > 100 µM

Q: And the GI50 (HS 578T breast)?
A: 24.3 µM and 10.2 µM

Q: What about the TGI (HS 578T breast) of the same compound?
A: > 75 µM and 43.6 µM

Q: What about the GI50 (SK-MEL-5 melanoma) of the same compound?
A: 21.1 µM and 6.63 µM

Q: And the TGI (SK-MEL-5 melanoma)?
A: 45.5 µM and 28.7 µM

Q: And the TGI (T-47D breast)?
A: > 100 µM

Q: What about the GI50 (MDA-MB-231 breast) of the same compound?
A: 47.2 µM and 19.9 µM

Q: What about the TGI (MDA-MB-231 breast) of the same compound?
A: > 75 µM and 79.6 µM

Q: And the GI50 (HL-60(TB) leukemia)?
A: > 75 µM

Q: What about the TGI (HL-60(TB) leukemia) of the same compound?
A: > 75 µM

Q: And the TGI (A498 renal)?
A: > 100 µM

Q: What about the GI50 (HCT-116 colon) of the same compound?
A: 23.8 µM and 11 µM

Q: What about the TGI (HCT-116 colon) of the same compound?
A: > 100 µM

Q: And the TGI (UACC-257 melanoma)?
A: > 100 µM

Q: What about the TGI (U251 CNS) of the same compound?
A: 57.3 µM and > 100 µM

Q: What about the TGI (RPMI-8226 leukemia) of the same compound?
A: > 75 µM and 94.2 µM

Q: And the TGI (HOP-62 NSCLC)?
A: 27.8 µM and 34.7 µM

Q: What about the TGI (OVCAR-8 ovarian) of the same compound?
A: > 75 µM and 59.1 µM

Q: And the TGI (SN12C renal)?
A: > 75 µM and 90.1 µM

Q: What about the GI50 (TK-10 renal) of the same compound?
A: 24.2 µM and > 100 µM

Q: What about the TGI (TK-10 renal) of the same compound?
A: > 100 µM

Q: What about the GI50 (OVCAR-3 ovarian) of the same compound?
A: 17.5 µM and 4.17 µM

Q: What about the TGI (OVCAR-3 ovarian) of the same compound?
A: 40.8 µM and 19.5 µM

Q: What about the TGI (HOP-92 NSCLC) of the same compound?
A: > 100 µM

Q: And the GI50 (HT29 colon)?
A: 13.3 µM and 2.57 µM

Q: And the TGI (HT29 colon)?
A: 30.5 µM and 9.94 µM

Q: What about the GI50 (NCI-H23 lung) of the same compound?
A: 22.3 µM and 10.4 µM

Q: And the TGI (NCI-H23 lung)?
A: 50.9 µM and 69.7 µM

Q: And the GI50 (NCI-H226 lung)?
A: 16.6 µM and 1.75 µM

Q: And the TGI (NCI-H226 lung)?
A: 40.1 µM and 5.49 µM

Q: What about the TGI (SNB-75 CNS) of the same compound?
A: > 100 µM

Q: And the TGI (HCT-15 colon)?
A: 26 µM and 42.4 µM

Q: And the TGI (NCI-H522 lung)?
A: 42.5 µM and 50.5 µM

Q: What about the TGI (OVCAR-4 ovarian) of the same compound?
A: 34.1 µM and 54 µM

Q: What about the GI50 (SW-620 colon) of the same compound?
A: 18.7 µM and 8.21 µM

Q: What about the TGI (SW-620 colon) of the same compound?
A: > 100 µM

Q: What about the GI50 (MDA-N) of the same compound?
A: 23.9 µM and 5.99 µM

Q: What about the TGI (MDA-N) of the same compound?
A: > 75 µM and 54.1 µM

Q: What about the GI50 (KM12 colon) of the same compound?
A: 14.7 µM and 3.68 µM

Q: And the TGI (KM12 colon)?
A: 33.2 µM and 17 µM

Q: Which results are given for `CCOP(C)(=O)C(N)Cc1ccc(OC)c(OC)c1` (centres undefined)?
A: TGI (HCC-2998 colon): > 100 µM; TGI (786-0 renal): > 100 µM; TGI (SNB-19 CNS): > 100 µM; TGI (EKVX NSCLC): > 100 µM; TGI (RXF 393 renal): > 100 µM; TGI (A549 NSCLC): > 100 µM; TGI (UACC-62 melanoma): > 100 µM; TGI (LOX IMVI melanoma): > 100 µM; TGI (MCF7 breast): > 100 µM; TGI (SK-MEL-28 melanoma): > 100 µM; TGI (DU-145 prostate): > 100 µM; TGI (IGROV1 ovarian): > 100 µM; TGI (CCRF-CEM leukemia): > 100 µM; TGI (MALME-3M melanoma): > 100 µM; TGI (SF-539 CNS): > 100 µM; TGI (M14 melanoma): > 100 µM; TGI (K-562 leukemia): > 100 µM; TGI (CAKI-1 renal): > 100 µM; TGI (COLO 205 colon): > 100 µM; TGI (NCI/ADR-RES ovarian): > 100 µM; TGI (SK-OV-3 ovarian): > 100 µM; TGI (MOLT-4 leukemia): > 100 µM; TGI (SF-295 CNS): > 100 µM; TGI (SR leukemia): > 100 µM; TGI (BT-549 breast): > 100 µM; TGI (UO-31 renal): > 100 µM; TGI (PC-3 prostate): > 100 µM; TGI (MDA-MB-435): > 100 µM; TGI (ACHN renal): > 100 µM; TGI (NCI-H460 lung): > 100 µM; TGI (SF-268 CNS): > 100 µM; TGI (HS 578T breast): > 100 µM; TGI (SK-MEL-5 melanoma): > 100 µM; TGI (T-47D breast): > 100 µM; TGI (MDA-MB-231 breast): > 100 µM; TGI (HL-60(TB) leukemia): > 100 µM; TGI (A498 renal): > 100 µM; TGI (HCT-116 colon): > 100 µM; TGI (U251 CNS): > 100 µM; TGI (RPMI-8226 leukemia): > 100 µM; TGI (HOP-62 NSCLC): > 100 µM; TGI (OVCAR-8 ovarian): > 100 µM; TGI (SN12C renal): > 100 µM; TGI (TK-10 renal): > 100 µM; TGI (OVCAR-3 ovarian): > 100 µM; TGI (HOP-92 NSCLC): > 100 µM; TGI (HT29 colon): > 100 µM; TGI (NCI-H23 lung): > 100 µM; TGI (NCI-H226 lung): > 100 µM; TGI (SNB-75 CNS): > 100 µM; TGI (HCT-15 colon): > 100 µM; TGI (NCI-H522 lung): > 100 µM; TGI (OVCAR-4 ovarian): > 100 µM; TGI (SW-620 colon): > 100 µM; TGI (MDA-N): > 100 µM
